Values quoted from earlier work, collected in patent publication US20080241290A1, “Sinus relief composition and method of producing the same” (priority 2007, published 2008).

Details: pure capsaicinoid, Scoville scale

Question: Which “pungency (Scoville heat units)” value does the source give for COc1cc(CNC(=O)CCCC/C=C/C(C)C)ccc1O [capsaicin] here?
Answer: Its value is 15,000,000-16,000,000 Scoville units.
